Test results: patent US8178506B2, “Oligomeric compounds and compositions for use in modulation of small non-coding RNAs” (Regulus Therapeutics Inc., priority 2003, dated 2012)
In the oligonucleotide strings, read from the 5' end, every base follows the letter of its sugar. An asterisk marks phosphorothioate; unmarked linkages are phosphodiester. Other units and linkages are bracketed, terminal groups are in braces. A string of capitals states the bases alone. e = 2'-O-(2-methoxyethyl) (MOE); [5mC] = 5-methylcytosine

Tests used:
Glut4 = Glut4 mRNA expression in adipocytes (real-time PCR); format: cell-based, human; settings: differentiating adipocytes transfected with oligomeric compound
aP2 = aP2 mRNA expression in adipocytes (real-time PCR); format: cell-based, human; settings: differentiating adipocytes transfected with oligomeric compound; for aP2 mRNA: Table 75
PPARγ = PPARγ mRNA expression in adipocytes (real-time PCR); format: cell-based, human; settings: differentiating adipocytes transfected with oligomeric compound
HSL = HSL mRNA expression in adipocytes (real-time PCR); format: cell-based, human; settings: differentiating adipocytes transfected with oligomeric compound
adipocytes = assay: Triglyceride accumulation assay in adipocytes; format: cell-based, human; settings: differentiating adipocytes transfected with oligomeric compound
HuVECs = assay: Endothelial tube formation assay in HuVECs; settings: 75 nM oligomeric compound
HeLa cells = assay: Cell cycle assay in HeLa cells; format: cell-based, human; settings: HeLa cells, 150 nM oligomeric compound
[1] = test system: BJ, B16-F10, T47D, T47Dp53 and HeLa cells; assay: Cell cycle assay (propidium iodide flow cytometry), cell line panel; format: cell-based; settings: 150 nM oligomeric compound, 4.5 μg/ml LIPOFECTIN, after 72 hours, propidium iodide flow cytometry
[2] = 24 hours, relative to untreated control (UTC = 100)
[3] = 48 hours after treatment, relative to untreated control (UTC=100)

Substance: 327968 (antisense e[5mC]*eA*eA*eT*eG*e[5mC]*eA*eA*e[5mC]*eA*eG*e[5mC]*eA*eA*eT*eG*e[5mC]*eA*e[5mC]) [compound 327968]
- GLUT4 mRNA (Glut4; Table 75): 85 percentage of untreated control (UTC)
- aP2 mRNA (aP2): 67 percentage of untreated control (UTC)
- PPAR gamma mRNA (PPARγ; Table 75): 79 percentage of untreated control (UTC)
- HSL mRNA (HSL; Table 75): 79 percentage of untreated control (UTC)
- TG (triglyceride accumulation) (adipocytes; Table 75): 94 percentage of untreated control (UTC)
- % Activity Relative to UTC (tube formation) (HuVECs; Table 59): 93.3%

Substance: 327908 (antisense e[5mC]*eA*eA*eT*eG*e[5mC]*eA*eA*e[5mC]*eT*eA*e[5mC]*eA*eA*eT*eG*e[5mC]*eA*e[5mC]) [compound 327908]
- % cells aneuploid (HeLa cells; [2]): 114%
- % cells in cell cycle phase G1 (HeLa cells; [2]): 98%
- % cells in cell cycle phase G2/M (HeLa cells; [2]): 106%
- % cells in cell cycle phase S (HeLa cells; [2]): 99%
- % cells in cell cycle phase subG1 (HeLa cells; [2]): 138%
- % cells in cell cycle phase: G1 (HeLa cells; [3]): 99%
- % cells in cell cycle phase: G2/M (HeLa cells; [3]): 105%
- % cells in cell cycle phase: S (HeLa cells; [3]): 98%
- % cells in cell cycle phase: aneuploid (HeLa cells; [3]): 93%
- % cells in cell cycle phase: subG1 (HeLa cells; [3]): 61%
- G1 (percentage of cells in phase of the cell cycle) [1]: 55.4%
- G2/M (percentage of cells in phase of the cell cycle) [1]: 15.3%
- S (percentage of cells in phase of the cell cycle) [1]: 29.2%
- SubG1 (percentage of cells in phase of the cell cycle) [1]: 5.6%
- aneuploid (percentage of cells) [1]: 13.1%
- % Activity Relative to UTC (tube formation) (HuVECs; Table 57): 103.5%

Substance: 327909 (antisense e[5mC]*e[5mC]*e[5mC]*eA*eA*e[5mC]*eA*eA*e[5mC]*eA*eT*eG*eA*eA*eA*e[5mC]*eT*eA*e[5mC]*e[5mC]*eT*eA) [compound 327909]
- GLUT4 mRNA (Glut4): 132 percentage of untreated control (UTC)
- AP2 mRNA (aP2): 88 percentage of untreated control (UTC)
- PPAR gamma mRNA (PPARγ): 96 percentage of untreated control (UTC)
- HSL mRNA (HSL): 130 percentage of untreated control (UTC)
- G1 (percentage of cells in phase of the cell cycle) [1]: 52.6%
- G2/M (percentage of cells in phase of the cell cycle) [1]: 17.3%
- S (percentage of cells in phase of the cell cycle) [1]: 30.1%
- SubG1 (percentage of cells in phase of the cell cycle) [1]: 7.9%
- aneuploid (percentage of cells) [1]: 16.3%
- TG (triglyceride accumulation) (adipocytes): 132 percentage of untreated control (UTC)
- % Activity Relative to UTC (tube formation) (HuVECs; Table 57): 96.6%

Substance: 327962 (antisense eG*e[5mC]*eT*eG*eA*eG*eA*eG*eT*eG*eT*eA*eG*eG*eA*eT*eG*eT*eT*eT*eA*e[5mC]*eA) [compound 327962]
- GLUT4 mRNA (Glut4; Table 75): 58 percentage of untreated control (UTC)
- aP2 mRNA (aP2): 75 percentage of untreated control (UTC)
- PPAR gamma mRNA (PPARγ; Table 75): 80 percentage of untreated control (UTC)
- HSL mRNA (HSL; Table 75): 77 percentage of untreated control (UTC)
- TG (triglyceride accumulation) (adipocytes; Table 75): 64 percentage of untreated control (UTC)
- % Activity Relative to UTC (tube formation) (HuVECs; Table 59): 53.3%

Substance: 327937 (antisense eG*eA*eT*eT*e[5mC]*eA*e[5mC]*eA*eA*e[5mC]*eA*e[5mC]*e[5mC]*eA*eG*e[5mC]*eT) [compound 327937]
- GLUT4 mRNA (Glut4): 63 percentage of untreated control (UTC)
- AP2 mRNA (aP2): 76 percentage of untreated control (UTC)
- PPAR gamma mRNA (PPARγ): 92 percentage of untreated control (UTC)
- HSL mRNA (HSL): 77 percentage of untreated control (UTC)
- TG (triglyceride accumulation) (adipocytes): 81 percentage of untreated control (UTC)
- % Activity Relative to UTC (tube formation) (HuVECs; Table 58): 88.9%

Substance: 327966 (antisense eA*eT*e[5mC]*e[5mC]*eA*eA*eT*e[5mC]*eA*eG*eT*eT*e[5mC]*e[5mC]*eT*eG*eA*eT*eG*e[5mC]*eA*eG*eT*eA) [compound 327966]
- GLUT4 mRNA (Glut4; Table 75): 43 percentage of untreated control (UTC)
- aP2 mRNA (aP2): 53 percentage of untreated control (UTC)
- PPAR gamma mRNA (PPARγ; Table 75): 77 percentage of untreated control (UTC)
- HSL mRNA (HSL; Table 75): 56 percentage of untreated control (UTC)
- TG (triglyceride accumulation) (adipocytes; Table 75): 52 percentage of untreated control (UTC)
- % Activity Relative to UTC (tube formation) (HuVECs; Table 59): 40.0%

Substance: 327914 (antisense eG*e[5mC]*e[5mC]*e[5mC]*eT*eT*eT*eT*eA*eA*e[5mC]*eA*eT*eT*eG*e[5mC]*eA*e[5mC]*eT*eG) [compound 327914]
- G1 (percentage of cells in phase of the cell cycle) [1]: 55.8%
- G2/M (percentage of cells in phase of the cell cycle) [1]: 15.3%
- S (percentage of cells in phase of the cell cycle) [1]: 28.9%
- SubG1 (percentage of cells in phase of the cell cycle) [1]: 8.5%
- aneuploid (percentage of cells) [1]: 16.2%
- % Activity Relative to UTC (tube formation) (HuVECs; Table 57): 82.8%

Substance: 327881 (antisense eA*eA*eA*eA*eG*eA*eG*eA*e[5mC]*e[5mC]*eG*eG*eT*eT*e[5mC]*eA*e[5mC]*eT*eG*eT*eG*eA) [compound 327881]
- GLUT4 mRNA (Glut4; Table 75): 97 percentage of untreated control (UTC)
- aP2 mRNA (aP2): 95 percentage of untreated control (UTC)
- PPAR gamma mRNA (PPARγ; Table 75): 98 percentage of untreated control (UTC)
- HSL mRNA (HSL; Table 75): 93 percentage of untreated control (UTC)
- TG (triglyceride accumulation) (adipocytes; Table 75): 91 percentage of untreated control (UTC)
- % Activity Relative to UTC (tube formation) (HuVECs; Table 56): 50.0%

Substance: 327943 (antisense eT*eA*eT*e[5mC]*eT*eG*e[5mC]*eA*e[5mC]*eT*eA*eG*eA*eT*eG*e[5mC]*eA*e[5mC]*e[5mC]*eT*eT*eA) [compound 327943]
- GLUT4 mRNA (Glut4; Table 75): 87 percentage of untreated control (UTC)
- aP2 mRNA (aP2): 106 percentage of untreated control (UTC)
- PPAR gamma mRNA (PPARγ; Table 75): 98 percentage of untreated control (UTC)
- HSL mRNA (HSL; Table 75): 109 percentage of untreated control (UTC)
- TG (triglyceride accumulation) (adipocytes; Table 75): 112 percentage of untreated control (UTC)
- % Activity Relative to UTC (tube formation) (HuVECs; Table 58): 81.5%

Substance: 327879 (antisense eA*eA*e[5mC]*eA*eA*eA*eA*eT*e[5mC]*eA*e[5mC]*eT*eA*eG*eT*e[5mC]*eT*eT*e[5mC]*e[5mC]*eA) [compound 327879]
- GLUT4 mRNA (Glut4; Table 75): 99 percentage of untreated control (UTC)
- aP2 mRNA (aP2): 103 percentage of untreated control (UTC)
- PPAR gamma mRNA (PPARγ; Table 75): 81 percentage of untreated control (UTC)
- HSL mRNA (HSL; Table 75): 103 percentage of untreated control (UTC)
- TG (triglyceride accumulation) (adipocytes; Table 75): 59 percentage of untreated control (UTC)
- % Activity Relative to UTC (tube formation) (HuVECs; Table 56): 71.4%
